Data: PubChem BioAssay AID1259407 (Chemical Carcinogenesis Research Information System (CCRIS), 2018)
The source made the active and inactive calls. The rule behind the calls is not given here.

System: CCRIS mutagenicity, Ames/micronucleus/aberration tests
Assay: CCRIS mutagenicity studies
[1] = Test System: AMES SALMONELLA TYPHIMURIUM, Strain/Indicator: TA98, Metabolic Activation: NONE, Method: STANDARD PLATE
[2] = Test System: AMES SALMONELLA TYPHIMURIUM, Strain/Indicator: TA100, Metabolic Activation: NONE, Method: STANDARD PLATE
[3] = Test System: AMES SALMONELLA TYPHIMURIUM, Strain/Indicator: TA1535, Metabolic Activation: NONE, Method: STANDARD PLATE
[4] = Test System: AMES SALMONELLA TYPHIMURIUM, Strain/Indicator: TA1537, Metabolic Activation: NONE, Method: STANDARD PLATE
[5] = Test System: AMES SALMONELLA TYPHIMURIUM, Strain/Indicator: TA1538, Metabolic Activation: NONE, Method: STANDARD PLATE

## OC[C@@H](O)[C@@H](O)[C@H](O)[C@H](O)CO
End Point: IN VITRO CHROMOSOMAL ABERRATIONS, Test System: CHO CELLS, Metabolic Activation: NONE
  mutagenic call: inactive; negative
End Point: IN VITRO CHROMOSOMAL ABERRATIONS, Test System: CHO CELLS, Metabolic Activation: RAT, LIVER, S-9, AROCLOR 1254
  mutagenic call: inactive; negative
Test System: AMES SALMONELLA TYPHIMURIUM, Strain/Indicator: TA97, Metabolic Activation: NONE, Method: PREINCUBATION
  mutagenic call: inactive; negative
Test System: AMES SALMONELLA TYPHIMURIUM, Strain/Indicator: TA97, Metabolic Activation: S-9, Method: PREINCUBATION
  mutagenic call: inactive; negative
[1]
  mutagenic call: inactive; negative
Test System: AMES SALMONELLA TYPHIMURIUM, Strain/Indicator: TA98, Metabolic Activation: RAT, LIVER, S-9, AROCLOR 1254, Method: STANDARD PLATE
  mutagenic call: inactive; negative
[2]
  mutagenic call: inactive; negative
Test System: AMES SALMONELLA TYPHIMURIUM, Strain/Indicator: TA100, Metabolic Activation: RAT, LIVER, S-9, AROCLOR 1254, Method: STANDARD PLATE
  mutagenic call: inactive; negative
Test System: AMES SALMONELLA TYPHIMURIUM, Strain/Indicator: TA102, Metabolic Activation: NONE, Method: PREINCUBATION
  mutagenic call: inactive; negative
Test System: AMES SALMONELLA TYPHIMURIUM, Strain/Indicator: TA102, Metabolic Activation: S-9, Method: PREINCUBATION
  mutagenic call: inactive; negative
[3]
  mutagenic call: inactive; negative
Test System: AMES SALMONELLA TYPHIMURIUM, Strain/Indicator: TA1535, Metabolic Activation: RAT, LIVER, S-9, AROCLOR 1254, Method: STANDARD PLATE
  mutagenic call: inactive; negative
[4]
  mutagenic call: inactive; negative
Test System: AMES SALMONELLA TYPHIMURIUM, Strain/Indicator: TA1537, Metabolic Activation: RAT, LIVER, S-9, AROCLOR 1254, Method: STANDARD PLATE
  mutagenic call: inactive; negative
[5]
  mutagenic call: inactive; negative
Test System: AMES SALMONELLA TYPHIMURIUM, Strain/Indicator: TA1538, Metabolic Activation: RAT, LIVER, S-9, AROCLOR 1254, Method: STANDARD PLATE
  mutagenic call: inactive; negative
Test System: E. COLI, Strain/Indicator: WP2, Metabolic Activation: NONE, Method: STANDARD PLATE
  mutagenic call: inactive; negative
Test System: E. COLI, Strain/Indicator: WP2, Metabolic Activation: RAT, LIVER, S-9, AROCLOR 1254, Method: STANDARD PLATE
  mutagenic call: inactive; negative

## CC(C)COP(=S)(OCC(C)C)SCCl
Test System: AMES SALMONELLA TYPHIMURIUM, Strain/Indicator: TA98, Metabolic Activation: NONE
  mutagenic call: inactive; negative
[1]
  mutagenic call: inactive; negative
Test System: AMES SALMONELLA TYPHIMURIUM, Strain/Indicator: TA98, Metabolic Activation: RAT, LIVER, S-9, SODIUM PHENOBARBITAL, Method: STANDARD PLATE
  mutagenic call: inactive; negative
Test System: AMES SALMONELLA TYPHIMURIUM, Strain/Indicator: TA98, Metabolic Activation: S-9
  mutagenic call: inactive; negative
Test System: AMES SALMONELLA TYPHIMURIUM, Strain/Indicator: TA100, Metabolic Activation: NONE
  mutagenic call: inactive; negative
[2]
  mutagenic call: inactive; negative
Test System: AMES SALMONELLA TYPHIMURIUM, Strain/Indicator: TA100, Metabolic Activation: RAT, LIVER, S-9, SODIUM PHENOBARBITAL, Method: STANDARD PLATE
  mutagenic call: inactive; negative
Test System: AMES SALMONELLA TYPHIMURIUM, Strain/Indicator: TA100, Metabolic Activation: S-9
  mutagenic call: inactive; negative
Test System: E. COLI, Strain/Indicator: WP2, Metabolic Activation: NONE
  mutagenic call: inactive; negative
Test System: E. COLI, Strain/Indicator: WP2, Metabolic Activation: RAT, LIVER, S-9, SODIUM PHENOBARBITAL, Method: STANDARD PLATE
  mutagenic call: inactive; negative
Test System: E. COLI, Strain/Indicator: WP2, Metabolic Activation: S-9
  mutagenic call: inactive; negative
Test System: E. COLI, Strain/Indicator: WP2 UVRA, Metabolic Activation: NONE
  mutagenic call: inactive; negative
Test System: E. COLI, Strain/Indicator: WP2 UVRA, Metabolic Activation: RAT, LIVER, S-9, SODIUM PHENOBARBITAL, Method: STANDARD PLATE
  mutagenic call: inactive; negative
Test System: E. COLI, Strain/Indicator: WP2 UVRA, Metabolic Activation: S-9
  mutagenic call: inactive; negative

## CCC1CCC(CCC(=O)[O-])C1.CCC1CCC(CCC(=O)[O-])CC1.[Cu+2] (configuration not stated)
End Point: In vitro chromosomal aberrations, Test System: Chinese hamster ovary (CHO) cells, Metabolic Activation: None
  mutagenic call: inactive; negative
End Point: In vitro chromosomal aberrations, Test System: Chinese hamster ovary (CHO) cells, Metabolic Activation: Rat, Liver, S-9, Aroclor
  mutagenic call: inactive; negative
Test System: AMES SALMONELLA TYPHIMURIUM, Strain/Indicator: TA98, Metabolic Activation: HAMSTER, LIVER, S-9, AROCLOR 1254 (10%), Method: STANDARD PLATE
  mutagenic call: inactive; negative
[1]
  mutagenic call: inactive; negative
Test System: AMES SALMONELLA TYPHIMURIUM, Strain/Indicator: TA98, Metabolic Activation: RAT, LIVER, S-9, AROCLOR 1254 (10%), Method: STANDARD PLATE
  mutagenic call: inactive; negative
Test System: AMES SALMONELLA TYPHIMURIUM, Strain/Indicator: TA100, Metabolic Activation: HAMSTER, LIVER, S-9, AROCLOR 1254 (10%), Method: STANDARD PLATE
  mutagenic call: inactive; negative
[2]
  mutagenic call: inactive; negative
Test System: AMES SALMONELLA TYPHIMURIUM, Strain/Indicator: TA100, Metabolic Activation: RAT, LIVER, S-9, AROCLOR 1254 (10%), Method: STANDARD PLATE
  mutagenic call: inactive; negative
Test System: AMES SALMONELLA TYPHIMURIUM, Strain/Indicator: TA1535, Metabolic Activation: HAMSTER, LIVER, S-9, AROCLOR 1254 (10%), Method: STANDARD PLATE
  mutagenic call: inactive; negative
[3]
  mutagenic call: inactive; negative
Test System: AMES SALMONELLA TYPHIMURIUM, Strain/Indicator: TA1535, Metabolic Activation: RAT, LIVER, S-9, AROCLOR 1254 (10%), Method: STANDARD PLATE
  mutagenic call: inactive; negative
Test System: AMES SALMONELLA TYPHIMURIUM, Strain/Indicator: TA1537, Metabolic Activation: HAMSTER, LIVER, S-9, AROCLOR 1254 (10%), Method: STANDARD PLATE
  mutagenic call: inactive; negative
[4]
  mutagenic call: inactive; negative
Test System: AMES SALMONELLA TYPHIMURIUM, Strain/Indicator: TA1537, Metabolic Activation: RAT, LIVER, S-9, AROCLOR 1254 (10%), Method: STANDARD PLATE
  mutagenic call: inactive; negative
Test System: AMES SALMONELLA TYPHIMURIUM, Strain/Indicator: TA1538, Metabolic Activation: HAMSTER, LIVER, S-9, AROCLOR 1254 (10%), Method: STANDARD PLATE
  mutagenic call: inactive; negative
[5]
  mutagenic call: inactive; negative
Test System: AMES SALMONELLA TYPHIMURIUM, Strain/Indicator: TA1538, Metabolic Activation: RAT, LIVER, S-9, AROCLOR 1254 (10%), Method: STANDARD PLATE
  mutagenic call: inactive; negative
Test System: MOUSE LYMPHOMA, Strain/Indicator: L5178Y (TK+/TK-), Metabolic Activation: RAT, LIVER, S-9, AROCLOR 1254, Method: SUSPENSION/PLATE
  mutagenic call: active; positive. reevaluation of results: positive
Test System: Mouse lymphoma, Strain/Indicator: L5178Y TK+/-, Metabolic Activation: Mammalian, liver, S-9
  mutagenic call: active; positive
Test System: Mouse lymphoma, Strain/Indicator: L5178Y TK+/-, Metabolic Activation: None
  mutagenic call: inactive; negative
